# Measurements from patent US11484558B2, “Epizootic hemorrhagic disease virus—tel aviv university (EHDV-TAU)—oncolytic virus for treating cancer” (Ramot at Tel-Aviv University Ltd., priority 2017, dated 2022).
# Assays:
# LNCaP-JAK1 cells [1] = assay: Trypan blue exclusion assay of LNCaP-JAK1 cells; format: cell-based, human
# Protocol: Graph depicts mean±SE (n=5) of the percentage of trypan blue permeable cells with and without IFNα. **p<0.005.
# Graph depicts mean±SE (n=10).**p<0.005; ns, non-significant.
# In the presence of Q-VD-OPh (throughout pre-treatment and infection). **p<0.01.
# The indicated cells were treated and infected as in FIG. 9B, and the percentage of dead cells was determined by trypan blue exclusion assay. Graph depicts mean±SE of the percentage of dead cells with and without IFNγ (n=3). **p<0.005; ns (non-significant).
# Trypan blue exclusion assay—2×10^5 LNCaP cells/well in a 12-well plate were infected, or not, under the indicated experimental conditions. For each well, detached and attached cells were collected together and mixed with 0.5% trypan blue at a 1:1 ratio. Cells were classified by trypan blue exclusion by light microscopy. Trypan blue (0.5%) was from Beit Haemek Biological Industries, Israel (cat. #03-102-1B).
# LNCaP cells [2] = assay: Preliminary experiments, toxicity of TSA to LNCaP cells; format: cell-based, human; conditions: longer incubation periods (84 to 96 hours)
# LNCaP-JAK1 cells [3] = assay: SILAC proteome analysis of LNCaP-JAK1 cells; conditions: for number of ISGs upregulated (of 50 ISGs): LNCaP-JAK1, cytokine treatment alone
# Protocol: Stable Isotope Labeling by Amino Acids Analysis (S/LAC)—LNCaP and LNCaP-JAK1 cells were grown in RPMI devoid of lysine and arginine (Thermo, Cat. #A2494401), supplemented with 10% dialyzed FCS (Biological Industries, cat. #04-011-1A) and antibiotics for ten cell divisions (^˜3 weeks). “Heavy” culture medium was supplemented with ^13C6^15N2-lysine (146 mg/ml, cat. #CNLM-291-H) and ^13C6^15N4-arginine (84 mg/ml cat. #CNLM-539-H) both from Cambridge Isotope Laboratories. “Light” labeled culture medium was supplemented with unmodified lysine and arginine at the same concentrations. To avoid potential bias in the analysis, in any given condition, cultures were labeled with heavy (H) or light (L) amino acids; or with the reciprocal labeling. Each H-L pair was repeated twice. Thus, quantification of each condition was based on four independent replicates. Labeled cells, either treated or untreated, were trypsinized, counted, and washed twice in cold PBS. Samples were digested by trypsin and analyzed by Liquid chromatography tandem-mass spectrometry (LC-MS/MS) on Q Exactive hybrid quadrupole-Orbitrap mass spectrometer (Thermo Scientific). The data were analyzed and quantified with MaxQuant 1.5.2.8, using the human Uniprot database. Proteins were identified with false discovery rate (FDR)<0.01.
# LNCaP-JAK1 cells [4] = assay: Cell cycle analysis (sub-G1, PI, FACS) of LNCaP-JAK1 cells; format: cell-based, human; conditions: LNCaP-JAK1, IL-6 treatment
# Protocol: RPMI (supplemented with 10% FCS, 10 ml) was added post-fixation, after which cells were pelleted, washed twice with cold PBS and re-suspended in PBS supplemented with RNase A (20 μg/ml, 30 minutes). Following additional pelleting, cells were re-suspended in Propidium Iodide (P1) solution (50 μg/ml in PBS) and analyzed by FACS (Becton Dickinson).
# LNCaP cells [5] = assay: SILAC proteome analysis of LNCaP cells; conditions: IL-6 5 ng/ml for 16 hours
# DU145 cells [6] = assay: Immunofluorescence of NS3-positive infected DU145 cells with or without IFNα; format: cell-based, human; conditions: DU145, IFNα 200 U/ml for 45 hours
# Protocol: (§1) Quantification of percentage NS3 positive cells was from multiple (n=5) randomly selected fields, imaged under the same conditions as in FIG. 4D; *p<0.05.
# (§2) Immunofluorescence—DU145 or LNCaP cells were seeded (5×10^4 cells/well) onto glass coverslips placed in a 24-well plate, and were infected, or not, with EHDV-TAU-LNCaP, in the presence or absence of IFNα. At 44 hours post infection (hpi) or 2 hours (for IFNα treatment), cells were washed twice with cold PBS (4° C.), fixed (4% paraformaldehyde for 20 minutes), blocked and permeabilized (PBS 1%/BSA 0.1%/Triton 0.1% (PBS/BSA/T) for 30 minutes), and stained with polyclonal anti-NS3 (1:300 dilution in PBS/BSA/T). Alexa-488 or 555-conjugated goat-anti-rabbit antibodies (1:200 dilution in PBS/BSA/T) were used as secondary antibodies. In order to detect nuclear phosphorylated STAT1, cells were fixed (4% paraformaldehyde for 20 minutes) and permeabilized with ice-cold methanol (10 minutes at −20° C.). Cells were stained with Rabbit-anti phospho-Tyr701-STAT1 (1:100 dilution in PBS/BSA/T) for overnight at 4° C. Mounting was with Fluorescence Mounting Medium (Golden Bridge, Mukilteo, Wash., USA, cat. #E1818).
# LNCaP-JAK1 cells [7] = assay: IFNα-induced pSTAT1 in LNCaP-JAK1 cells (immunoblot); format: cell-based, human; conditions: LNCaP-JAK1, 200 U/ml for 2 hours
# LNCaP-JAK1 cells [8] = format: cell-based, human
# LNCaP cells [9] = assay: Immunofluorescence of NS3-positive infected LNCaP cells with or without IFNα; format: cell-based, human; conditions: IFNα 200 U/ml for 45 hours
# Protocol: as §1, §2
# LNCaP-JAK1 cells [10] = assay: qRT-PCR of IFIT5 and IRF7 in LNCaP-JAK1 cells after IFNα; format: cell-based, human; conditions: LNCaP-JAK1, IFNα 200 U/ml for 24 hours
# Protocol: The average expression level of untreated cells was taken as 1. *p<0.05.
# qRT-PCR—Total RNA was extracted from cells using EZ-RNA kit (Biological Industries, Israel, cat. #20-400-100) according to the manufacturer's instructions. First-strand cDNA synthesis was performed using the iScript cDNA Synthesis Kit (Bio Rad cat. #1708890) according to the manufacturer's instructions, with additional no-RNA control. Real-Time PCR analyses of mRNA levels of the genes of interest, relative to GAPDH mRNA levels were performed in triplicates, using Fast SYBR-green master mix (Applied Biosystems, cat. #4385612) with StepOnePlus Real-Time PCR System (Applied Biosystems, cat. #4376600). Primers were designed to span exon-exon junctions and to produce 80-140 bp amplicons. Gene expression values were calculated based on the comparative threshold cycle method.
# DU145 cells [11] = assay: Virus-induced death of DU145 cells with IFN; format: cell-based, human; conditions: DU145, IFN alone
# LNCaP cells [12] = format: cell-based, human
# DU145 cells [13] = assay: IFNα-mediated STAT1 phosphorylation in DU145 cells (immunoblot); format: cell-based, human
# LNCaP cells [14] = assay: IFNα-mediated STAT1 phosphorylation in LNCaP cells (immunoblot); format: cell-based, human
# LNCaP-JAK1 cells [15] = assay: Immunoblot of STAT1 and STAT3 phosphorylation after IFNγ in LNCaP-JAK1 cells; format: cell-based, human; conditions: LNCaP-JAK1, IFNγ 25 ng/ml for 20 minutes
# Protocol: LNCaP and LNCaP-JAK1 cells were exposed to 25 ng/ml of IFNγ for 20 minutes.
molecule,measurement,setting,value
"COC(=O)CC(NC(=O)C(NC(=O)c1ccc2ccccc2n1)C(C)C)C(=O)COc1c(F)cccc1F (stereo not shown) [Q-VD-OPh, Quinolyl-valyl-O-methylaspartyl-[-2,6-difluorophenoxy]-methyl ketone, reference compound]",effect of caspase inhibition on death of infected cells,"LNCaP-JAK1 cells [1]; LNCaP-JAK1, Q-VD-OPh 20 μM, regardless of the presence of IL-6",to basal levels
"CC(/C=C/C(=O)NO)=C\[C@@H](C)C(=O)c1ccc(N(C)C)cc1 [TSA, trichostatin A]",toxicity to LNCaP cells,LNCaP cells [2],toxic
"IL-6: Human IL-6 (PeproTech), pleiotropic cytokine",number of ISGs upregulated (of 50 ISGs),LNCaP-JAK1 cells [3],16
same,percentage of cells exhibiting sub-G1 DNA content,LNCaP-JAK1 cells [4],slight increase
same,number of ISGs upregulated (of 50 ISGs),LNCaP cells [5],3
IFNα,effect on EHDV-TAU-LNCaP-induced cell death,"LNCaP-JAK1 cells [1]; LNCaP-JAK1, IFNα 200 U/ml",protection from EHDV-TAU-LNCaP-induced cell death was observed
same,effect of IFNα on NS3 signal of EHDV-TAU-LNCaP-infected cultures,DU145 cells [6],abrogated the NS3 signal
same,pSTAT1 levels upon IFNα stimulation,LNCaP-JAK1 cells [7],dramatic increases in pSTAT1 levels
same,effect on production of infectious virions,LNCaP-JAK1 cells [8],inhibited production of infectious virions
same,number of ISGs upregulated (of 50 ISGs),LNCaP-JAK1 cells [3],17
same,enrichment of ISGs in IFNα-induced proteome changes,LNCaP-JAK1 cells [3]; LNCaP-JAK1 compared to parental LNCaP cells,24.4%
same,effect of IFNα on EHDV-TAU-LNCaP infection,LNCaP cells [9],negligible effects
same,expression of IFIT5 and IRF7,LNCaP-JAK1 cells [10],marked induction
same,protection from virus-induced death,DU145 cells [11],significantly protect
same,activation of ISRE luciferase reporter,LNCaP cells [12],1.2±0.1 fold
same,STAT1 phosphorylation in response to IFNα,"DU145 cells [13]; DU145, 200 U/ml for 4 hours",robust STAT1 phosphorylation
same,increase in pSTAT1 levels,"DU145 cells [13]; DU145, 30 minutes post stimulation with 200 U/ml IFNα",18±11 fold
same,pSTAT1 in response to IFNα,LNCaP cells [14]; 200 U/ml for 4 hours,only residual pSTAT1 levels
same,increase in pSTAT1 levels,LNCaP cells [14]; 30 minutes post stimulation with 200 U/ml IFNα,4.2±2.5 fold
"IFNγ: human IFNγ (PeproTech) (protein, UniProt P01579 24-161, looked up) Interferon gamma: QDPYVKEAENLKKYFNAGHSDVADNGTLFLGILKNWKEESDRKIMQSQIVSFYFKLFKNFKDDQSIQKSVETIKEDMNVKFFNSNKKKRDDFEKLTNYSVTDLNVQRKAIHELIQVMAELSPAAKTGKRKRSQMLFRG",effect on death of infected cells,"LNCaP-JAK1 cells [1]; LNCaP-JAK1, IFNγ 25 ng/ml",supported oncolysis by non-productive viral infection
same,number of ISGs induced,"LNCaP-JAK1 cells [3]; LNCaP-JAK1, IFNγ 25 ng/ml, 14 hours",35
same,STAT activation,LNCaP-JAK1 cells [15],activated STAT1 (but not STAT3)
